“Also recorded” adds a separate entry of the source.
Key:
HCE cells = assay: Inhibition assay of HCE cell adhesion using matrix peptides and reagents; type: cell-based, human; conditions: HCE cells preincubated 30 min with reagent; for inhibition of cell adhesion to βig-h3: dishes coated with 10 μg/ml βig-h3; for inhibition of cell adhesion to fibronectin: dishes coated with 10 μg/ml fibronectin
Procedure: In order to identify cell surface receptors involved in the cell adhesion activity of βig-h3 protein, an inhibition assay was performed using various reagents.
Initially, plastic culture dishes were coated with 10 μg/ml fibronectin, βigh3-WT or βigh3-ΔRGD. HCE cells were preincubated for 30 min in media containing 5 mM EDTA, 100 μg/ml βigh3-WT, 100 μg/ml βigh3-ΔRGD, 1 mM RGD, 1 mM RGE or 100 μg/ml fibronectin, or none of them, and then assayed for cell adhesion as in Example 1.

[1] = system: Human corneal epithelial (HCE) cells; assay: HCE cell adhesion and spreading assay on protein-coated plates; type: cell-based; conditions: HCE cells on coated recombinant protein
Procedure: Human corneal epithelial (HCE) cells used in this assay were cultured in DMEM ([…], Gibco BRL) supplemented with 15% fetal bovine serum, Gentamicin (40 μg/ml), insulin (5 μg/ml), cholera toxin (0.1 μg/ml) and human epidermal growth factor (hEGF) at 37° C. in 5% CO2.
The cell adhesion assay was performed as follows. First, the recombinant βig-h3 proteins or other extracellular matrix proteins were let to adhere to the bottoms of 96-well microculture plates (Falcon) by incubation at 37° C. for 1 hour and blocked with PBS containing 0.2% BSA. The coated extracellular matrix proteins were human plasma vitronectin (Promega), purified human plasma fibronectin (pFN), chicken collagen types I and II (Chemicon International Inc.), bovine collagen types IV and VI (Chemicon), mouse laminin (Chemicon), and bovine serum albumin (BSA) (Sigma). Cells were trypsinized and suspended in the culture media at a density of 2×10^5 cells/ml. 0.1 ml of the cell suspension was added to each well of the plates coated with the recombinant proteins.
Following incubation at 37° C. for 1 hour, unattached cells were removed by rinsing with PBS. Attached cells were incubated for 1 hour at 37° C. in 50 mM citrate buffer, pH 5.0, containing 3.75 mM p-nitrophenol-N-acetyl 1-β-D-glycosaminide as a hexosaminidase substrate and 0.25% Triton X-100, followed by the addition of 50 mM glycine buffer, pH 10.4, containing 5 mM EDTA to block the enzyme activity. A measurement was made of absorbance at 405 nm in a Multiskan MCC/340 microplate reader.
To determine cell area as an index for cell adhesion activity, 4×10^4 cells were applied to substrates in 48-well culture plates. The attached cells were fixed weith 8% glutaraldehyde (Sigma) and then stained with 0.25% Crystal Violet (Sigma) in 20% methanol. Measurement of cell areas was performed by Image-Pro plus software (Media Cybernetics). Experiments were repeated in triplicate with 200 or 300 measurements per site for each experiment. Data is reported as the mean area at specific time points±standard error of mean.

K562 cells = assay: K562 cell adhesion to coated proteins (hexosaminidase analysis); type: cell-based; conditions: 1 hour
Procedure: For another control experiment, K562 cells, known to express α5, but not α3 integrin, were used. K562 cells were inoculated onto plates coated with βigh3-WT, fibronectin, laminin, or type I collagen and incubated for 1 hour, followed by the hexosaminidase analysis.

| Molecule | inhibition of cell adhesion to βig-h3 (HCE cells) | inhibition of cell adhesion to fibronectin (HCE cells) | HCE cell adhesion activity [1] | adhesion of K562 cells to coated protein (K562 cells) |
| --- | --- | --- | --- | --- |
| RGE peptide: RGE peptide used at 1 mM in inhibition assay | not inhibited | – | – | – |
| O=C(O)CN(CCN(CC(=O)O)CC(=O)O)CC(=O)O [EDTA] | significantly inhibited | significantly inhibited | – | – |
| RGD peptide: Arg-Gly-Asp peptide used at 1 mM in inhibition assay | significantly inhibited | significantly inhibited | – | – |
| O=C(O)CN(CCOCCOCCN(CC(=O)O)CC(=O)O)CC(=O)O [EGTA] | partially inhibited | partially inhibited | – | – |
| βig-h3 D-II: recombinant polypeptide, 2nd fas-1 domain of βig-h3, amino acids 237-377 (SEQ ID NO:24) (protein, left off: small tags and cut ends) STITNNIQQIIEIEDTFETLRAAVAASGLNTMLEGNGQYTLLAPTNEAFEKIPSETLNRILGDPEALRDLLNNHILKSAMCAEAIVAGLSVETLEGTTLEVGCSGDMLTINGKAIISNKDILATNGVIHYIDELLIPDSAK | – | – | equally active compared to the wild type βig-h3; also recorded: high cell attachment activity | – |
| vitronectin: human plasma vitronectin (Promega), coated extracellular matrix protein (protein) DQESCKGRCTEGFNVDKKCQCDELCSYYQSCCTDYTAECKPQVTRGDVFTMPEDEYTVYDDGEEKNNATVHEQVGGPSLTSDLQAQSKGNPEQTPVLKPEEEAPAPEVGASKPEGIDSRPETLHPGRPQPPAEEELCSGKPFDAFTDLKNGSLFAFRGQYCYELDEKAVRPGYPKLIRDVWGIEGPIDAAFTRINCQGKTYLFKGSQYWRFEDGVLDPDYPRNISDGFDGIPDNVDAALALPAHSYSGRERVYFFKGKQYWEYQFQHQPSQEECEGSSLSAVFEHFAMMQRDSWEDIFELLFWGRTSAGTRQPQFISRDWHGVPGQVDAAMAGRIYISGMAPRPSLAKKQRFRHRNRKGYRSQRGHSRGRNQNSRRPSRATWLSLFSSEESNLGANNYDDYRMDWLVPATCEPIQSVFFFSGDKYYRVNLRTRRVDTVDPPYPRSIAQYWLGCPAPGHL | – | – | – | adhered |
